Measurements reported in patent publication US5091370A, “Angolamycin derivatives” (Sanraku Incorporated, priority 1989, dated 1992).

Assay: Stability test against a mouse liver homogenate
Type: in vitro ADME, ICR-strain mice
Conditions: mouse liver homogenate supernatant, pH 7.2, 37° C., unchanged product remaining by TLC/chromatoscanner (283 nm), read-out: Residual activity ratio (%)
Protocol: The livers of ICR-strain mice were homogenized together with 5 times their amount of 0.1M phosphate buffer (pH 7.2) in a Potter homogenizer (3000 rpm, 10 minutes). One ml of 500 micrograms/ml of a test compound (10% methanol water) was added to the supernatant (1 ml) of the homogenate, and reacted at 37° C. for 1 hour. The mixture was heated at 100° C. of 3 minutes. Then, 1 ml of 0.1M phosphate buffer (pH 9.0) was added, and the mixture was extracted with 1 ml of ethyl acetate, organic layer was subjected to silica gel thin-layer chromatography (chloroform/methanol/ammonia=15/1.2/0.1), and by a chromatoscanner (283 nm), the ratio of an unchanged product and a hydrolyzed product formed was determined. The amount of the unchanged product remaining was expressed by percentage.

remaining at 1 h [%] | SMILES
94 | CCC1OC(=O)CC(O)C(C)C(OC2CC(N(C)C)C(OC3CC(C)(O)C(OC(=O)Cc4ccc(C(C)=O)cc4)C(C)O3)C(C)O2)C(CC=O)CC(C)C(=O)/C=C/C2(C)OC2C1COC1OC(C)C(O)C(OC)C1OC (stereo not drawn) [Compound (1), 4"-O-(p-acetylphenylacetyl)-angolamycin]
95 | CCC1OC(=O)CC(O)C(C)C(OC2CC(N(C)C)C(OC3CC(C)(O)C(OC(=O)Cc4ccc(OC)cc4)C(C)O3)C(C)O2)C(CC=O)CC(C)C(=O)/C=C/C2(C)OC2C1COC1OC(C)C(O)C(OC)C1OC (stereo not drawn) [Compound (2), 4"-O-(p-methoxyphenylacetyl)-angolamycin]
55 | CCC1OC(=O)CC(O)C(C)C(OC2CC(N(C)C)C(OC3CC(C)(O)C(OC(=O)CC(C)C)C(C)O3)C(C)O2)C(CC=O)CC(C)C(=O)/C=C/C2(C)OC2C1COC1OC(C)C(O)C(OC)C1OC (stereo not drawn) [Control compound (1), 4"-O-isovaleryl angola-mycin, reference compound]
